Data published in PubChem BioAssay AID256 (DTP/NCI, 2004).
“And” between values parts separate entries of the source, which are not always exact repeats. Equal values may be shown once. Toxic doses and inconclusive results are not listed.

Tested on: CD2F1 mice, L1210 leukemia ip, survival T/C
Assay: NCI In Vivo Anticancer Drug Screen. Data for tumor model L1210 Leukemia (intraperitoneal) in CD2F1 (CDF1) mice
Conditions: higher = longer survival
Summary of the method: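 Antitumor effect is scored in animals hosting a serially transplanted tumor. Values compare compound-dosed animals against vehicle-only controls as a simple quotient.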

[1] = endpoint: mean survival time, dose: 100.0 mg/kg/injection, schedule: Q04DX003 (ip), vehicle: saline
[2] = endpoint: mean survival time, dose: 200.0 mg/kg/injection, schedule: Q04DX003 (ip), vehicle: saline
[3] = endpoint: median survival time, dose: 100.0 mg/kg/injection, schedule: Q01DX009 (ip), vehicle: saline with Tween-80
[4] = endpoint: mean survival time, dose: 50.0 mg/kg/injection, schedule: Q01DX009 (ip), vehicle: saline with Tween-80
[5] = endpoint: mean survival time, dose: 100.0 mg/kg/injection, schedule: Q01DX009 (ip), vehicle: saline with Tween-80
[6] = endpoint: mean survival time, dose: 200.0 mg/kg/injection, schedule: Q01DX009 (ip), vehicle: saline with Tween-80
[7] = endpoint: mean survival time, dose: 100.0 mg/kg/injection, schedule: Q04DX002 (ip), vehicle: saline with Tween-80
[8] = endpoint: mean survival time, dose: 200.0 mg/kg/injection, schedule: Q04DX002 (ip), vehicle: saline with Tween-80
[9] = endpoint: mean survival time, dose: 100.0 mg/kg/injection, schedule: Q04DX003 (ip), vehicle: saline with Tween-80
[10] = endpoint: mean survival time, dose: 200.0 mg/kg/injection, schedule: Q04DX003 (ip), vehicle: saline with Tween-80
[11] = endpoint: mean survival time, dose: 400.0 mg/kg/injection, schedule: Q04DX003 (ip), vehicle: saline with Tween-80
[12] = endpoint: mean survival time, dose: 400.0 mg/kg/injection, schedule: Q01DX009 (ip), vehicle: saline with Tween-80

CCCCn1cnc2c(=S)nc[nH]c21
T/C (endpoint: mean survival time, dose: 32.0 mg/kg/injection, schedule: Q01DX009 (ip), vehicle: saline): 118 % of control and 105 % of control
T/C (endpoint: mean survival time, dose: 64.0 mg/kg/injection, schedule: Q01DX009 (ip), vehicle: saline): 112 % of control and 115 % of control
T/C (endpoint: mean survival time, dose: 100.0 mg/kg/injection, schedule: Q01DX007 (ip), vehicle: saline): 113 % of control
T/C (endpoint: mean survival time, dose: 100.0 mg/kg/injection, schedule: Q03DX003 (ip), vehicle: saline): 102 % of control
T/C [1]: 97 % of control
T/C (endpoint: mean survival time, dose: 128.0 mg/kg/injection, schedule: Q01DX009 (ip), vehicle: saline): 118 % of control
T/C (endpoint: mean survival time, dose: 200.0 mg/kg/injection, schedule: Q01DX007 (ip), vehicle: saline): 162 % of control
T/C (endpoint: mean survival time, dose: 200.0 mg/kg/injection, schedule: Q01DX009 (ip), vehicle: saline): 165 % of control
T/C (endpoint: mean survival time, dose: 200.0 mg/kg/injection, schedule: Q03DX003 (ip), vehicle: saline): 122 % of control
T/C [2]: 118 % of control
T/C (endpoint: mean survival time, dose: 256.0 mg/kg/injection, schedule: Q01DX009 (ip), vehicle: saline): 153 % of control and 169 % of control
T/C (endpoint: mean survival time, dose: 400.0 mg/kg/injection, schedule: Q01DX007 (ip), vehicle: saline): 115 % of control
T/C (endpoint: mean survival time, dose: 400.0 mg/kg/injection, schedule: Q01DX009 (ip), vehicle: saline): 102 % of control
T/C (endpoint: mean survival time, dose: 400.0 mg/kg/injection, schedule: Q03DX003 (ip), vehicle: saline): 168 % of control
T/C (endpoint: mean survival time, dose: 400.0 mg/kg/injection, schedule: Q04DX003 (ip), vehicle: saline): 163 % of control
T/C (endpoint: median survival time, dose: 25.0 mg/kg/injection, schedule: Q01DX009 (ip), vehicle: saline with Tween-80): 124 % of control and 107 % of control
T/C (endpoint: median survival time, dose: 50.0 mg/kg/injection, schedule: Q01DX009 (ip), vehicle: saline with Tween-80): 122 % of control
T/C [3]: 164 % of control
T/C (endpoint: median survival time, dose: 200.0 mg/kg/injection, schedule: Q01DX009 (ip), vehicle: saline with Tween-80): 154 % of control and 164 % of control
T/C (endpoint: median survival time, dose: 400.0 mg/kg/injection, schedule: Q01DX009 (ip), vehicle: saline with Tween-80): 122 % of control

CCCCC#CCOCC(O)CCl (stereo unspecified)
T/C (endpoint: mean survival time, dose: 25.0 mg/kg/injection, schedule: Q01DX009 (ip), vehicle: water): 95 % of control
T/C (endpoint: mean survival time, dose: 50.0 mg/kg/injection, schedule: Q01DX009 (ip), vehicle: water): 107 % of control
T/C (endpoint: mean survival time, dose: 100.0 mg/kg/injection, schedule: Q01DX009 (ip), vehicle: water): 103 % of control
T/C (endpoint: mean survival time, dose: 200.0 mg/kg/injection, schedule: Q01DX009 (ip), vehicle: water): 100 % of control

CC1CCCCN1C(=O)Nc1c(Cl)cccc1Cl (stereo unspecified)
T/C [4]: 98 % of control
T/C [5]: 105 % of control
T/C [6]: 94 % of control

CC12C(=O)C=CCC1=CCC1C2CCC2(O)C(=O)OC3(C)C4CC5(C)C(COC16OC23C5C6=O)C(=O)O4 (stereo unspecified)
T/C (endpoint: median survival time, dose: 25.0 mg/kg/injection, schedule: Q01DX009 (ip), vehicle: Klucel (hydroxypropylcellulose) (HPC)): 102 % of control
T/C (endpoint: median survival time, dose: 50.0 mg/kg/injection, schedule: Q01DX009 (ip), vehicle: Klucel (hydroxypropylcellulose) (HPC)): 96 % of control
T/C (endpoint: median survival time, dose: 100.0 mg/kg/injection, schedule: Q01DX009 (ip), vehicle: Klucel (hydroxypropylcellulose) (HPC)): 100 % of control
T/C (endpoint: median survival time, dose: 200.0 mg/kg/injection, schedule: Q01DX009 (ip), vehicle: Klucel (hydroxypropylcellulose) (HPC)): 108 % of control

Cn1c(=O)sc2ccccc21
T/C [7]: 111 % of control
T/C [8]: 114 % of control

c1ccc2c(c1)OC1(CCCCC1)O2
T/C [9]: 100 % of control
T/C [10]: 103 % of control
T/C [11]: 102 % of control

CC(=O)NC/C(Cl)=C/Cl
T/C [9]: 99 % of control
T/C [10]: 96 % of control
T/C [11]: 88 % of control

CCOC(=O)C(C#N)(CCC#N)CCC#N
T/C [5]: 94 % of control
T/C [9]: 100 % of control
T/C [6]: 98 % of control
T/C [10]: 102 % of control
T/C [12]: 94 % of control
T/C [11]: 100 % of control

Cc1ccc(N2OCCN(C(=O)c3cc([N+](=O)[O-])cc([N+](=O)[O-])c3)C2c2ccccc2)cc1 (stereo unspecified)
T/C [5]: 91 % of control
T/C [6]: 95 % of control
T/C [12]: 91 % of control

O=C1c2ccccc2C(=O)N1CC/C=C/c1ccc([N+](=O)[O-])cc1Cl
T/C [9]: 98 % of control
T/C [10]: 91 % of control
T/C [11]: 100 % of control

O=C(O)/C=C\c1cccc([N+](=O)[O-])c1
T/C [5]: 94 % of control
T/C [6]: 103 % of control
T/C [12]: 88 % of control

C[PH+](C)C.C[PH+](C)C.[Au]
T/C (endpoint: median survival time, dose: 0.62 mg/kg/injection, schedule: Q01DX009 (ip), vehicle: saline): 101 % of control
T/C (endpoint: median survival time, dose: 1.25 mg/kg/injection, schedule: Q01DX009 (ip), vehicle: saline): 101 % of control
T/C (endpoint: median survival time, dose: 2.5 mg/kg/injection, schedule: Q01DX009 (ip), vehicle: saline): 101 % of control
T/C (endpoint: median survival time, dose: 5.0 mg/kg/injection, schedule: Q01DX009 (ip), vehicle: saline): 101 % of control
T/C (endpoint: median survival time, dose: 10.0 mg/kg/injection, schedule: Q01DX009 (ip), vehicle: saline): 101 % of control

C=CC/C=C/C(C)(C)C
T/C [4]: 103 % of control
T/C [5]: 100 % of control
T/C [6]: 100 % of control

CCCC(C(=O)O)C1=CCCC1 (stereo unspecified)
T/C (endpoint: mean survival time, dose: 25.0 mg/kg/injection, schedule: Q01DX009 (ip), vehicle: saline with Tween-80): 102 % of control
T/C [4]: 102 % of control
T/C [5]: 100 % of control

O=NN(CCCl)C(=O)NCc1ccc[n+]([O-])c1
T/C (endpoint: mean survival time, dose: 6.25 mg/kg/injection, schedule: Q01DX001 (ip), vehicle: water): 152 % of control and 167 % of control
T/C (endpoint: mean survival time, dose: 12.5 mg/kg/injection, schedule: Q01DX001 (ip), vehicle: water): 274 % of control and 290 % of control
T/C (endpoint: mean survival time, dose: 25.0 mg/kg/injection, schedule: Q01DX001 (ip), vehicle: water): 309 % of control and 324 % of control

COc1ccc(COc2ccc([N+](=O)[O-])cc2)cc1OC
T/C (endpoint: mean survival time, dose: 75.0 mg/kg/injection, schedule: Q04DX002 (ip), vehicle: saline with Tween-80): 87 % of control
T/C (endpoint: mean survival time, dose: 150.0 mg/kg/injection, schedule: Q04DX002 (ip), vehicle: saline with Tween-80): 102 % of control

CC(=O)OCC1OC(Oc2c([N+](=O)[O-])cc([N+](=O)[O-])c3ccccc23)C(OC(C)=O)C(OC(C)=O)C1OC(C)=O (stereo unspecified)
T/C [7]: 96 % of control
T/C [8]: 93 % of control
T/C (endpoint: mean survival time, dose: 400.0 mg/kg/injection, schedule: Q04DX002 (ip), vehicle: saline with Tween-80): 104 % of control

CN(C)N=Nc1ccc(C(N)=O)cc1
T/C (endpoint: mean survival time, dose: 18.75 mg/kg/injection, schedule: Q01DX009 (ip), vehicle: Klucel (hydroxypropylcellulose) (HPC)): 112 % of control
T/C (endpoint: mean survival time, dose: 150.0 mg/kg/injection, schedule: Q01DX009 (ip), vehicle: Klucel (hydroxypropylcellulose) (HPC)): 109 % of control
T/C (endpoint: median survival time, dose: 12.5 mg/kg/injection, schedule: Q01DX005 (ip), vehicle: saline with Tween-80): 105 % of control
T/C (endpoint: median survival time, dose: 25.0 mg/kg/injection, schedule: Q01DX005 (ip), vehicle: saline with Tween-80): 113 % of control
T/C (endpoint: median survival time, dose: 36.0 mg/kg/injection, schedule: Q01DX005 (ip), vehicle: saline with Tween-80): 123 % of control and 110 % of control
T/C (endpoint: median survival time, dose: 36.0 mg/kg/injection, schedule: Q01DX009 (ip), vehicle: saline with Tween-80): 116 % of control
T/C (endpoint: median survival time, dose: 60.0 mg/kg/injection, schedule: Q01DX005 (ip), vehicle: saline with Tween-80): 113 % of control
T/C [3]: 166 % of control
T/C (endpoint: median survival time, dose: 167.0 mg/kg/injection, schedule: Q01DX005 (ip), vehicle: saline with Tween-80): 157 % of control
T/C (endpoint: median survival time, dose: 167.0 mg/kg/injection, schedule: Q01DX009 (ip), vehicle: saline with Tween-80): 176 % of control
T/C (endpoint: median survival time, dose: 278.0 mg/kg/injection, schedule: Q01DX005 (ip), vehicle: saline with Tween-80): 96 % of control
T/C (endpoint: median survival time, dose: 278.0 mg/kg/injection, schedule: Q01DX009 (ip), vehicle: saline with Tween-80): 98 % of control

CN(C)C(=O)c1ccc(Cl)c(Cl)c1
T/C [5]: 102 % of control
T/C [6]: 107 % of control

COc1cc(OC)c2c[n+](C)c3c4cc(OC)c(OC)cc4ccc3c2c1
T/C (endpoint: mean survival time, dose: 12.5 mg/kg/injection, schedule: Q01DX009 (ip), vehicle: saline): 102 % of control
T/C (endpoint: mean survival time, dose: 25.0 mg/kg/injection, schedule: Q01DX009 (ip), vehicle: saline): 102 % of control
T/C (endpoint: mean survival time, dose: 50.0 mg/kg/injection, schedule: Q01DX009 (ip), vehicle: saline): 98 % of control

C/C(=C\c1ccccc1)CCC(=O)O
T/C (endpoint: mean survival time, dose: 50.0 mg/kg/injection, schedule: Q04DX003 (ip), vehicle: saline): 100 % of control
T/C [1]: 103 % of control
T/C [2]: 97 % of control

CC(C)C(=O)Nc1cccc(OC(=O)NC(C)(C)C)c1
T/C (endpoint: mean survival time, dose: 25.0 mg/kg/injection, schedule: Q01DX001 (ip), vehicle: saline with Tween-80): 100 % of control
T/C (endpoint: mean survival time, dose: 50.0 mg/kg/injection, schedule: Q01DX001 (ip), vehicle: saline with Tween-80): 91 % of control
T/C (endpoint: mean survival time, dose: 100.0 mg/kg/injection, schedule: Q01DX001 (ip), vehicle: saline with Tween-80): 94 % of control
